This is an account of results in patent US20260374829A1, “METHODS AND PLATFORM RELATED TO FLUORESCENT PROTEIN BIOSENSORS” (BOARD OF REGENTS, THE UNIVERSITY OF TEXAS SYSTEM, priority 2023, published 2026).

The test system of test [1] is free ADPR sensor (cpVenus integrated between amino acids 118 and 119 of Shewanella oneidensis NrtR, Uniprot Q8EFJ3; K435A, S436D, D122N), SEQ ID NO: 1. The test can be described thus: Fluorescence response of purified free ADPR sensor to ligands in vitro. Conditions: role: ligand; for sensor fluorescence response (in words): FIG. 5A; for sensor responsivity (in words): structurally related molecules, FIG. 5. Type of test: binding. The source says: (§1) The sensor is based on a circularly-permutated single fluorescent protein design (Baird et al, 1999 PNAS and reviewed in Nasu et al, 2021 Nat Chem Biol). For the fluorescence readout, the GFP-derived fluorescent protein, Venus, was used. Venus was circularly permutated and reforms to its fluorescent beta barrel fold by introducing a cut between amino acids 144 and 145 and connecting its original N- and C-termini with a 5 amino acid GGSGG linker sequence (circularly permutated Venus now referred to as cpVenus or cpV). Circular permutation permits attachment of an analyte binding domain in close proximity to the chromophore of Venus. The analyte binding domain confers selectivity of ligand binding to the sensor. The Nudix-like bacterial transcription factor NrtR from Shewanella oneidensis was used that is an ADPR-dependent transcriptional repressor (Rodionov et al, 2008 Nucleic Acids Res; Gao et al, 2019 eLIFE). The cpV protein was integrated between amino acids 118 and 119 in the sequence of NrtR (Uniprot Q8EFJ3).
Based on these analyses, cpV integrated into site 118/119 in NrtR was chosen for further analyses. This site is adjacent to the hinge region of the ligand-binding site, and it is within an alpha-helix that undergoes a disruptive loss of secondary structure when free ADPR binds (FIG. 1). The model is that this structural change is transduced to the nearby chromophore of cpV to cause a change in fluorescence intensity. This may occur through disruption of the chromophore or shifting the pKa of the chromophore.
Due to the compact nature of NrtR, attempts to use truncation to eliminate the DNA-binding domain appeared to destabilize the whole protein and thus could not be used. Instead, three point mutations were identified and used to ablate the outward facing overall positive change on this domain. These point mutations are distinct from the ligand-binding domain. The specific sites and their mutations (K435A and S436D) were identified through empirical screening and it was determined that in combination they alleviated aggregation of the sensor when it was ectopically expressed (FIG. 2).
The mutation D122N was also incorporated to reduce the number of polar and charged side-chains in proximity to the sensor's chromophore. The rationale was that charged residues could shift the local pKa of the chromophore promoting in its protonation. Introduction of D122N improved the brightness of the sensor and stabilized its pH-sensitivity between pH 7.4-8.0 (FIG. 3)
The sequence of the free ADPR sensor is shown in SEQ ID NO: 1.
The purified sensor (FIG. 4) decreased in fluorescence intensity with addition of free ADPR. At high concentrations, it saturated with ~80% diminishment of sensor brightness that represented an […] dose-dependent response (FIG. 4B, red). […] It was determined that the sensor responds to free ADPR with a Kd~2 μM±1 μM and is thus poised to detect intracellular free ADPR concentrations (Heiner, et al, 2006 Biochem J; Gasser and Guse, 2005 J Chromatogr B Analyt Technol Biomed Life Sci; Gasser et al, 2006 J Biol Chem).

A further test relates to PARP1/2. The test can be described thus: Free ADPR sensor response in live cells after acute H2O2 treatment (confocal imaging), with PARP1/2 inhibitor. Type of test: cell-based. Conditions: role: inhibitor (PARP1/2), FIG. 7. The method, then:
(§2) Values are mean (F/F0)±SD, analyzed by confocal microscopy.
(§3) With confocal imaging, it was determined that the free ADPR sensor responded in live cells to an accumulation of free ADPR upon oxidation stress by acute H2O2 treatment (FIG. 7). In this experimental paradigm, H2O2 induces PARP1/2 to generate poly-ADPR chains, and due to the activities of glycohydrolases, this in turn leads to increased levels of free ADPR monomers. […] The generation of free ADPR was confirmed by a GCaMP7s sensor that monitored the resulting Ca^2+ influx from activation of co-expressed TRPM2 (FIG. 7B).

Another test deals with free ADPR sensor. Briefly: Free ADPR sensor response in live cells to H2O2 treatment (confocal microscopy). Type of test: cell-based. Particulars: role: activator (oxidation stress), acute H2O2 treatment, FIG. 7. The procedure: as §2, §3
Another test relates to TRPM2. The test can be described thus: TRPM2 response in live cells to H2O2 treatment, Ca2+ influx reported by GCaMP7s. Format: cell-based. Particulars: role: activator (via increased free cytosolic ADPR), GCaMP7s readout, FIG. 7B. The method, then: as §2, §3
Test [2] relates to free ADPR sensor no binding control R98E (cpVenus in Shewanella oneidensis NrtR, Uniprot Q8EFJ3; binding pocket mutant R98E), SEQ ID NO: 2. The test can be described thus: Fluorescence response of non-binding control sensor to ligands in vitro. Particulars: role: ligand, FIG. 4B.
Excerpt: as §1
The purified sensor (FIG. 4) decreased in fluorescence intensity with addition of free ADPR. At high concentrations, it saturated with ~80% diminishment of sensor brightness that represented an ~4-fold dose-dependent response (FIG. 4B, red). […]

Regarding `Nc1ncnc2c1ncn2[C@@H]1O[C@H](COP(=O)(O)OP(=O)(O)OC[C@H]2O[C@@H]([n+]3cccc(C(=O)O)c3)[C@H](O)[C@@H]2O)[C@@H](O)[C@H]1O` [NAAD^+], the “sensor fluorescence response (in words)” value in test [1] is recorded as “does not respond”.
Same read-out and setting: as for `Nc1ncnc2c1ncn2[C@@H]1O[C@H](COP(=O)(O)OP(=O)(O)OC[C@H]2OC(O)[C@H](O)[C@@H]2O)[C@@H](O)[C@H]1OP(=O)(O)O` (stereo partly drawn) [phospho ADPR], the entry is “responds”; as for `NC(=O)C1=CN([C@@H]2O[C@H](COP(=O)(O)OP(=O)(O)OC[C@H]3O[C@@H](n4cnc5c(N)ncnc54)[C@H](O)[C@@H]3O)[C@@H](O)[C@H]2O)C=CC1` [NADH, nicotinamide adenine dinucleotide], “does not respond”.
For the compound `O=C(c1cc(Cc2n[nH]c(=O)c3ccccc23)ccc1F)N1CCN(C(=O)C2CC2)CC1` [olaparib], the “effect on H2O2-induced free ADPR sensor responses (in words)” value in the test with PARP1/2 was “eliminated sensor responses”.
On to `Nc1ncnc2c1ncn2[C@H]1C[C@H](O)[C@@H](COP(=O)(O)OP(=O)(O)OC[C@H]2OC(O)[C@H](O)[C@@H]2O)O1` (stereo partly drawn) [2′-deoxy ADPR], for which, in test [1], the “sensor fluorescence response (in words)” value is listed as “responds”.
On to `O=C(CO)[C@H](O)[C@H](O)COP(=O)(O)O` [Ribulose-5-Phosphate], for which, in test [1], the “sensor fluorescence response (in words)” value is recorded as “does not respond”.
As for `NC(=O)c1ccc[n+]([C@@H]2O[C@H](COP(=O)(O)OP(=O)(O)OC[C@H]3O[C@@H](n4cnc5c(N)ncnc54)[C@H](O)[C@@H]3O)[C@@H](O)[C@H]2O)c1` [NAD^+, oxidized nicotinamide adenine dinucleotide], in test [1], the “sensor fluorescence response (in words)” value is “does not respond”.
Same read-out and setting: as for `N=c1c2ncn3c2ncn1[C@@H]1O[C@H](COP(=O)(O)OP(=O)(O)OC[C@H]2O[C@@H]3[C@H](O)[C@@H]2O)[C@@H](O)[C@H]1O` [cyclic ADPR], the entry is “does not respond”.
The same measure, in the same setting: with `Nc1ncnc2c1ncn2[C@@H]1O[C@H](COP(=O)(O)O)[C@@H](O)[C@H]1O` [AMP, adenosine monophosphate] the entry was “does not respond”; with `Nc1ncnc2c1ncn2[C@@H]1O[C@@H]2COP(=O)(O)OP(=O)(O)OC[C@H]3OC(O[C@H]2[C@H]1O)[C@H](O)[C@@H]3O` [3′-cyclic ADPR], “does not respond”.
On the same count and under the same terms, with `Nc1ncnc2c1ncn2[C@@H]1O[C@@H]2COP(=O)(O)OP(=O)(O)OC[C@H]3OC(O[C@@H]1[C@@H]2O)[C@H](O)[C@@H]3O` [2′-cyclic ADPR] the entry was “does not respond”.
Regarding `Nc1ncnc2c1ncn2[C@@H]1O[C@H](COP(=O)(O)OP(=O)(O)OP(=O)(O)O)[C@@H](O)[C@H]1O` [ATP, adenosine triphosphate], in test [1], the “sensor fluorescence response (in words)” value was “does not respond” and the “sensor responsivity (in words)” value is recorded as “minimal responsivity”.
With `Nc1ncnc2c1ncn2[C@@H]1O[C@H](COP(=O)(O)OP(=O)(O)OC[C@H]2O[C@@H]([n+]3cccc(C(=O)O)c3)[C@H](O)[C@@H]2O)[C@@H](O)[C@H]1OP(=O)(O)O` [NaADP^+], the “sensor fluorescence response (in words)” value in test [1] is reported as “does not respond”.
On to `OO` [H2O2], for which the “free ADPR sensor response to accumulation of free ADPR (in words)” value in the test with free ADPR sensor is listed as “responded”. The “TRPM2 response, influx of intracellular Ca2+ (in words)” value with TRPM2 is “responds with an influx of intracellular Ca^2+”.
In the case of `Nc1ncnc2c1ncn2[C@@H]1O[C@H](COP(=O)(O)OP(=O)(O)O)[C@@H](O)[C@H]1O` [ADP, adenosine diphosphate], in test [1], the “sensor fluorescence response (in words)” value is on record as “does not respond” and the “sensor responsivity (in words)” value is reported as “minimal responsivity”.
As to `Nc1ncnc2c1ncn2[C@@H]1O[C@H](COP(=O)(O)OP(=O)(O)OC[C@H]2OC(O)[C@H](O)[C@@H]2O)[C@@H](O)[C@H]1O` (stereo partly drawn) [free ADPR, Adenosine 5′Di-Phosphate Ribose], in test [1] (FIG. 4B, mean of n=3), the “fluorescence intensity with increasing free ADPR concentrations (in words)” value is “decreases”. For the same compound, the “diminishment of sensor brightness at saturation” value in test [1] (at high concentrations (saturated)) is ~ 80%. In addition, the “dose-dependent response (fold)” value in test [1] (fluorescence intensity, at saturation) was ~ 4 fold. Further, the “sensor fluorescence response (in words)” value in test [1] is “responds”. For the same compound, the “response of binding mutant to free ADPR (in words)” value in test [2] was “did not respond”.
As to `CC(=O)O[C@H]1C(O)O[C@H](COP(=O)(O)OP(=O)(O)OC[C@H]2O[C@@H](n3cnc4c(N)ncnc43)[C@H](O)[C@@H]2O)[C@H]1O` (stereo partly drawn) [O-Acetyl ADPR], the “sensor fluorescence response (in words)” value in test [1] was “responds”.
